Measured values: patent publication US20090162911A1 (priority 2007, published 2009)
Where two headings read alike, the source gives them in different places.

Columns and labels:
[1] = system: acrB transposition mutant strain DPD1852; details: LB with 0.2%, 0.3%, 0.4% or 0.6% 1-butanol (w/v), FIG. 3
Protocol: Overnight triplicate cultures of each strain were grown and diluted (1:10) into either LB or LB freshly supplemented with 0.2%, 0.3%. 0.4% or 0.6% 1-butanol (w/v). The growth of each culture was followed for approximately 18 hours.
An additional kinetic growth study was performed as described above.

E. coli strain EC100 = details: EC100 on solidified LB
Protocol: LB agar media supplemented with butanol was prepared fresh one day before innoculating at an appropriate volume and cooled for 2 hours in a 50° C. water bath. LB agar plates supplemented with butanol were prepared by dispensing 67 mls of melted agar, using a peristaltic pump and sterile Nalgene tubing, into sterile Omni trays with lids (Nunc mfg no. 242811). […] The plates were allowed to cool and set for approximately an hour before they were stored overnight in closed anaerobic chambers at room temperature in the chemical/biological hood. The next morning, the chambers harboring the plates were opened and allowed to air dry for approximately 1 hour before using.
Plates were incubated in a closed chamber at 37° C. for 1 day. The number of colonies arising and their sizes were scored. […] Butanol concentrations of 0.4% and 0.6% were chosen to screen for tolerance.

[2] = system: acrB transposon mutant line DPD1852; type: cell-based, E. coli; details: acrB mutation, 18 hr exposure, FIG. 7
Protocol: Growth of the acrB transposon mutant line, DPD1852 (in Example 2), and the parental strain EC100 were compared in the presence of different butanols. Cultures were grown in LB medium at 37° C. to mid-logarithmic phase and then 200 μl was put into microtiter wells of a Bioscreen device that monitors optical density as a function of time. Triplicate wells contained a culture challenged with a specified concentration of a compound. For 2- and isobutanol the concentrations tested were 0, 0.8, 1.2, 1.4, and 1.6% weight percent. For 1-butanol the concentrations were 0, 0.2, 0.3, 0.4, and 0.6% w/v. For 2-butanone (MEK, methylethylketone) the concentrations were 0, 2.5, 3, 3.5 and 4% w/v.

[3] = system: acrB deletion line DPD1876; details: acrB mutant, 0.4 and 0.6% 1-butanol, 18 hr, FIG. 6
Protocol: (§1) Shake flask experiments were performed on the acrB rpoZ::kan constructed double mutant line DPD1899, as well as the acrB deletion line DPD1876, the rpoZ::kan line JW3624, and the wild type control BW25113 line. Cultures were grown in LB medium containing 0%, 0.4% or 0.6% 1-butanol in shake flasks. The experiments were performed by inoculating 100 ml of medium in a 250 ml plastic flask with 2 ml of an overnight culture grown from a single colony grown at 37° C. and incubating with shaking for approximately two doubling times (1 hour), to an OD600 between 0.2 and 0.3. Each culture was split into […] in plastic screw top 125 ml flasks and the cultures were maintained at 37° C. in a shaking water bath at 200 rpm. The OD600 was monitored at 0, 30, 90, 120 190, and 260 minutes.
(§2) In the cultures above, a final time point was taken at 18 hr and used to calculate growth yield as a function of 1-butanol challenge. For each line grown in 0, 0.4% or 0.6% 1-butanol, the final 18 hour time point was divided by the no 1-butanol 18 hr time point.

[4] = system: acrB rpoZ::kan double mutant line DPD1899; details: 0.4 and 0.6% 1-butanol, 18 hr, FIG. 6
Protocol: as §1, §2

[5] = system: wild type control BW25113; details: wild type cells, 0.4 and 0.6% 1-butanol, 18 hr, FIG. 6
Protocol: as §1, §2

rpoZ::kan line JW3624 = details: rpoZ mutant, 0.4 and 0.6% 1-butanol, 18 hr, FIG. 6
Protocol: as §1, §2

[6] = system: tolC transposon insertion mutant JW5503; test: Shake flask growth of tolC insertion mutant compared with parental strain; type: cell-based, E. coli
Protocol: (§3) Strains of E. coli K12 EC100 having insertions in either the acrA or acrB coding regions, JW0452 and JW0451 respectively, were obtained from the Keio knockout collection described in Example 4. Growth of these strains was compared in the presence of 2-butanol and isobutanol in relation to the parental strain EC100. Overnight cultures were inoculated with a fresh colony and grown in LB at 37° C. with shaking. The next day the culture was diluted 1:100 into 100 ml of fresh LB in a 1 liter flask and grown for approximately 2 hours. The culture was split into 20 ml aliquots in 125 ml plastic screw top flasks. One culture remained unaltered serving as the no add control, and various concentrations of either 2-butanol or isobutanol were added to the remaining flasks. Absorbance (OD600) was monitored over time. Fractional growth yields were determined after 3 hr of exposure and percent improvement was calculated by subtracting the […] and multiplying by 100.
In addition, a to/C transposon insertion mutant of the Keio collection, JW5503, was also assayed.

[7] = system: acrB insertion strain JW0451; type: cell-based, E. coli; details: for improved growth over the parental strain: acrB modified strain, 3 hr exposure, LB 37° C.; for tolerance of mutant relative to parent strain: acrB mutant JW0451, FIG. 8
Protocol: as §3

[8] = system: acrA insertion strain JW0452; type: cell-based, E. coli; details: for improved growth over the parental strain: acrA modified strain, 3 hr exposure, LB 37° C.; for tolerance of mutant relative to parent strain: acrA mutant JW0452, FIG. 8
Protocol: as §3

## CCCCO [1-butanol]
[1]
  tolerance in terms of growth rate relative to wild type EC100: more tolerant to all of the concentrations of 1-butanol tested than the wild type strain
E. coli strain EC100; 0.6% 1-butanol, 37° C., 1 day
  colony size: only pinpoint colonies
E. coli strain EC100; 37° C.
  concentration with no colony formation after overnight incubation: ≥ 0.7 % (w/v)
E. coli strain EC100; closed chamber, 37° C., 1 day
  concentration from which colonies were progressively smaller: ≥ 0.2%
E. coli strain EC100; range of 0 to 0.6% 1-butanol
  titer (number of colonies arising): No change in titer
[2]
  tolerance (growth improvement over parental EC100): improved the tolerance
[3]
  growth yield (fractional growth): higher growth yields than wild type
[4]
  growth yield (fractional growth): even higher growth yield
[5]
  sensitivity to growth inhibition (fractional growth): most sensitive to growth inhibition
rpoZ::kan line JW3624
  growth yield (fractional growth): higher growth yields than wild type

## CCC(C)O (stereo not drawn) [2-butanol]
[6]
  growth response relative to parental strain: indistinguishable from the parental strain
[2]
  tolerance (growth improvement over parental EC100): improved the tolerance
[7]; 0.6% of the compound
  improved growth over the parental strain: about 24%
[7]; 0.8% of the compound
  improved growth over the parental strain: about 12%
[7]
  tolerance of mutant relative to parent strain: more tolerant
[8]; 0.6% of the compound
  improved growth over the parental strain: about 12%
[8]; 0.8% of the compound
  improved growth over the parental strain: about 5%
[8]
  tolerance of mutant relative to parent strain: more tolerant

## CCC(C)=O [MEK, 2-butanone]
[2]
  tolerance (growth improvement over parental EC100): improved the tolerance

## CC(C)CO [isobutanol]
[6]
  growth response relative to parental strain: indistinguishable from the parental strain
[2]
  tolerance (growth improvement over parental EC100): improved the tolerance
[7]; 0.4% of the compound
  improved growth over the parental strain: about 20%
[7]; 0.6% of the compound
  improved growth over the parental strain: about 2.5%
[7]
  tolerance of mutant relative to parent strain: more tolerant
[8]; 0.4% of the compound
  improved growth over the parental strain: about 18%
[8]; 0.6% of the compound
  improved growth over the parental strain: about 3.5%
[8]
  tolerance of mutant relative to parent strain: more tolerant
